Laboratory results taken from patent US12594296B2, “Methods for treatment or prevention of damage resulting from radiation, trauma or shock” (priority 2012, dated 2026).
“Also recorded” adds a separate entry of the source. Where two headings read alike, the source gives them in different places. Bridge positions count the residues as written; N and C are the ends. Square brackets hold non-standard residues; d marks the D form. Peptide text beside a SMILES is read from it. * marks the point of attachment. Ileψ(thiazoline)Cys = CC[C@H](C)[C@H](N)C1=N[C@H](C(=O)*)CS1; dOrn = NCCC[C@@H](N)C(=O)O

Legend:
[1] = system: Clostridium perfringens; format: in vivo, chicks
[2] = system: A431 epidermal cells; assay: Scratch healing of confluent A431 epidermal cell monolayer; format: cell-based; conditions: serum free DMEM; 24, 48, 72 or 96 hours
Description: A431 epidermal cells were seeded into 4-well chamber slides in DMEM plus 10% FBS at a density to be confluent the next day (5×10^5/well (˜1.8 cm^2)). The following day, a scratch was made across the confluent monolayer using a sterile 10 μl tip. The medium was aspirated and the wells rinsed with DMEM to remove floating debris. Serum free DMEM was added to all wells, plus or minus PAAG (18 kD, 25% functionalization) or EGF as a positive control. Cells were treated for 24, 48, 72 or 96 hours. Cells were fixed with paraformaldehyde at the indicated times and stained with hematoxylin for better visualization. A representative scratch at time 0 is duplicated at the top of each column of treatments for comparison depicted in FIG. 13.

[3] = Irradiation biomarkers in plasma (pro-calcitonin, citrulline) (Example 10)
[4] = system: mice exposed to ionizing radiation; assay: Total body irradiation study: survival and body weight (Example 1); format: in vivo; conditions: for Percent Dead Per Group: 50 mg/kg p.o. q.d. + 200 ppm in drinking water Days 1-18
Description: Male mice were exposed to an acute irradiation dose on Day 0 of 0, 12.5, or 13.0 Gy at a rate of 1 Gy/min with lead shielding to the left hind limb. Starting 24 hours after irradiation, the mice were untreated or treated with PAAG or vehicle control, given with 50 mg/kg via oral gavage daily and dosed ad libitum in the drinking water (200 ppm PAAG) from days 1 to 18. The treatment groups are summarized on TABLE 1.
The total body irradiation study was performed as described above with control vehicle or PAAG (86 kDa and 30% functionalization) administered to the mice at the indicated final concentrations. […] As shown in the Kaplan-Meier Survival Plot in FIG. 1, there was no mortality in animals that were not irradiated. […] In fact, 88% of the treated animals survived while only 19% of the untreated animals survived. […] The comparative mortality data from these experiments is tabulated on TABLE 2.

[5] = system: irradiated left buccal cheek pouch (oral mucositis); assay: Mucosal radiation dose ranging study, oral mucositis (Example 2); format: in vivo, Syrian Golden hamsters; conditions: 40 Gy to cheek pouch; 50, 100, 250 and 500 μg/mL t.i.d. into the pouch
Description: In a dose ranging study, an acute dose of irradiation of 40 Gy directed to the left buccal cheek pouch of Syrian Golden hamsters and the hamsters were treated t.i.d. with 50, 100, 250 and 500 μg/mL PAAG or vehicle control directly inserted into the pouch. Mean % weight change and mucositis score were recorded. The mucosal radiation dose ranging study was performed as described above with PAAG (86 kDa and 30% functionalization) added to the indicated final concentrations. […] A comparison of the mean percent weight gain for […] dosed with vehicle control and four dosing concentrations of PAAG is shown in FIG. 4. […] The healing effect of PAAG is shown in FIG. 6, which depicts the comparison of the percentage of animals with a mucositis score of 3 or higher on a given day post irradiation for a vehicle control and three doses of PAAG.

[6] = system: Acinetobacter baumaunii; assay: Caco2 attachment of Acinetobacter baumannii; format: cell-based; conditions: pretreatment 200 μg/mL 1 h; relative to untreated cells
Description: Caco2 Attachment. The gut epithelium cell line (Caco2) were grown in Eagle's Minimal Essential Media (EMEM) supplemented with 10% (v/v) fetal bovine serum and 2 mm L-glutamine. Caco2 cells were seeded at 2.5×10^5 per well in 24 well plates and incubated at 37° C. and in atmosphere of 5% CO2 for 24 hours to confluency. The cells were then rinsed twice with D-PBS and replaced with (EMEM) without fetal bovine serum for another 24 hours. Cells were rinsed with D-PBS twice and replaced with media containing no fetal bovine serum. Pretreatment of the cells with PAAG 200 ug/ml (86 kDa, 30% functionalization; 37 kDa, 22% functionalization; and 27 kDa, 21% functionalization) dissolved in media without serum for one hour was performed and the cells were then rinsed twice with D-PBS to remove any non-adherent PAAG. After rinsing, the cells were inoculated with Acinetobacter baumaunii in growth phase at a multiplicity of infection (MOI) of 1:100 for one hour. Cells were then rinsed twice with D-PBS before being lysed using 0.5% Triton X-100 in D-PBS. Supernatants were extracted and serially diluted, plated and counted for bacterial attachment.
(§1) Pretreatment and binding studies were performed as described above for Caco2 cells with Acinetobacter attachment and Burkholderia cepacia macrophage uptake studies, with the PAAG (86 kDa and 30% functionalization) added to the indicated final concentrations.

[7] = system: small intestine of irradiated C57BL/6 mice
[8] = system: Burkholderia cepacia; assay: Burkholderia cepacia macrophage uptake (U937); format: cell-based; conditions: pretreatment of U937 with 200 μg/mL; relative to untreated cells
Description: Burkholderia cepacia macrophage uptake. The myeloid cell line (U937) were grown in RPMI 1640 supplemented with 10% (v/v) fetal bovine serum and 2 mm L-glutamine. Cells were seeded at 6×10^5 cells per well in 24 well plates in RPMI 1640 additionally supplemented with 0.1 ug PMA for 48 hours to activate U937 cells to be macrophage-like. Cell media was replaced with cell media without fetal bovine serum and PMA for at least 2 hours. Treatments consisted of either PAAG (200 ug/ml) treated on cells for one hour and being rinsed with D-PBS twice before inoculation or with PAAG treatment with no rinse. Upon completion of pretreatment with PAAG, cells were inoculated with Burkholderia cepacia in growth phase with an MOI of 1:10 for 45 min. After inoculation period media is supplemented with 50 ug/ml of gentamicin for another 45 min. Cells were then rinsed twice with D-PBS before being lysed using 0.5% Triton X-100 in D-PBS and serially diluted, plated and counted for bacterial uptake.
as §1

[9] = system: MRSA strain MW2 (ATCC BAA-1707); assay: Nasal epithelium/MRSA binding assay (RPMI-2650 cells); format: cell-based; conditions: pretreatment 200 or 500 ppm for 5 and 60 minutes; compared to PBS and media controls
[10] = system: irradiated left buccal cheek pouch (oral mucositis); assay: Oral mucositis scheduling study (Example 3); format: in vivo, hamsters; conditions: 200 ppm thrice daily Day -1 to 14 or Day 10 to 36, relative to Day -7 to 36 or Day -1 to 36
Description: In a scheduling study, an acute dose of irradiation of 40 Gy directed to the left buccal cheek pouch and the hamsters were treated t.i.d. with 200 μg/mL PAAG or vehicle control directly inserted into the pouch. Schedules included PAAG treatment Day—7 to 36, Day—1 to 36, Day—1 to 14, and Day 10-36. Mean % weight change and mucositis score were recorded. Oral mucositis scheduling study was performed as described above with PAAG (86 kDa and 30% functionalization) added to the indicated final concentrations. The mean mucositis scores for a vehicle control and 200 ppm PAAG administered thrice daily from Day—7 to 36, Day—1 to 36, Day—1 to 14, or Day 10 to 36 is shown in FIG. 7. […] dosed with 200 ppm PAAG administered thrice daily from Day—1 to 14 or from Day 10 to 36 have a reduced mean mucositis score relative to mice dosed with 200 ppm PAAG thrice daily from Day—7 to 36 or from Day—1 to 36.

[11] = system: mice exposed to ionizing radiation; assay: Survival after three doses of total body radiation (Example 11); format: in vivo, CB57BL/6 mice; conditions: for mortality, vehicle versus PAAG: 50 mg/kg once a day oral gavage
Description: Male CB57BL/6 mice of the same weight and age were subjected to radiation doses of 12.5, 13.5 and 14.0 Gy. Animals were given the same dose of PAAG (50 mg/kg once a day) by oral gavage as in the previous study. Eighteen (18) animals were studied in each of […]: irradiated control and active PAAG at each dose. Mortality data is shown in FIG. 30 for three doses of total body radiation treated with vehicle or PAAG given via oral gavage daily.

[12] = system: bacteria in the mesenteric lymph nodes; assay: Intestinal bacterial translocation: bacterial count in mesenteric lymph nodes (Example 9); conditions: irradiated animals, 13 Gy; FIG. 16
[13] = system: IL-8 production in U937 cells; assay: IL-8 production response in LPS-stimulated U937 cells (IL-8 ELISA); format: cell-based, human; conditions: 1 h pretreatment, rinsed, LPS 10 ng/ml 4 h; relative to control or lactoferrin pretreatment
[14] = 13 Gy, day 4, quantitative histology, FIG. 19

CC[C@H](C)[C@H](N)C1=N[C@H](C(=O)N[C@@H](CC(C)C)C(=O)N[C@H](CCC(=O)O)C(=O)N[C@H](C(=O)N[C@H]2CCCCNC(=O)[C@H](CC(N)=O)NC(=O)[C@@H](CC(=O)O)NC(=O)[C@H](Cc3cnc[nH]3)NC(=O)[C@@H](Cc3ccccc3)NC(=O)[C@H]([C@@H](C)CC)NC(=O)[C@@H](CCCN)NC2=O)[C@@H](C)CC)CS1 [Bacitracin, reference compound] ({Ileψ(thiazoline)Cys}-L[dE]IK[dOrn]I[dF]H[dD]N; lactam 4-C)
mortality relative to control ([1]; ad libitum in water, PAAG at 100 ppm): reduced mortality with statistical significance; also recorded: reduced morality with statistical significance

EGF: EGF as a positive control [reference compound]
healing of scratches [2]: faster than control

poly (acetyl, arginyl) glucosamine [PAAG (18 kD, 25% functionalization)]
healing of scratches [2]: faster than control

poly (acetyl, arginyl) glucosamine [PAAG (22 kD, 36% functionalization)]
mortality relative to control ([1]; in vivo): reduced mortality with statistical significance; also recorded: reduced morality with statistical significance
treated animals died ([1]; in vivo): 15%

poly (acetyl, arginyl) glucosamine [PAAG]
citrulline reduction versus untreated irradiated animals ([3]; 13 Gy): statistically less
circulating plasma levels of PCT relative to controls ([3]; 13 Gy, oral gavage once a day): reduced
circulating amounts of citrulline relative to control ([3]; day 3 and 4 after lethal ionizing radiation): increased
survival difference between treated and untreated groups ([4]; 12.5Gy of radiation, p=0.081): No statistical difference
Percent Dead Per Group ([4]; 12.5 Gy, n=16): 31.25%
No. of Death ([4]; 12.5 Gy, Day 5, euthanized, n=16): 1
No. of Death ([4]; 12.5 Gy, Day 6, euthanized, n=16): 1
No. of Death ([4]; 12.5 Gy, Day 7, euthanized, n=16): 3
Percent Dead Per Group ([4]; 13.0 Gy, based on n=15): 13.33^¶ Percent
No. of Death ([4]; 13.0 Gy, Day 6, found dead, n=15): 1
No. of Death ([4]; 13.0 Gy, Day 18, euthanized, n=15): 1
survival difference vehicle versus PAAG ([4]; LD 80 dose (13.0 Gy), p<0.0001): very significant
treated animals survived ([4]; LD 80 dose of radiation (13.0 Gy), untreated 19%): 88%
mean percent weight change ([4]; compared with untreated animals, FIG. 2): no significant effect
Percent Dead Per Group ([4]; no radiation, n=5): 0%
No. of Death ([4]; no radiation, n=5): 0
course of oral mucositis [5]: modulated the course of oral mucositis
percentage of bacteria bound to Caco2 cells [6]: decreases
crypt degeneration ([7]; 13 Gy, day 2, 50 mg/kg PO): mild to moderate
villi height, structure and epithelium ([7]; 13 Gy, day 2, 50 mg/kg PO): retained their normal height and structure
crypt regeneration ([7]; 13 Gy, day 3, 50 mg/kg PO): mild to moderate
villi blunting ([7]; 13 Gy, day 3, 50 mg/kg PO): minimally blunted
crypt loss ([7]; 13 Gy, day 4, 50 mg/kg PO): moderate to marked
crypt regeneration ([7]; 13 Gy, day 4, 50 mg/kg PO): moderate to marked
loss of villous epithelium ([7]; 13 Gy, day 4, compared with vehicle group 3): not as severe as in group 3 animals
GI inflammation relative to control [7, 14]: reduced
crypt loss relative to control [7, 14]: reduced
epithelial loss relative to control [7, 14]: reduced
crypt degeneration versus vehicle-treated mice ([7]; 13 Gy, days 2-4): less severe
inflammation versus vehicle-treated mice ([7]; 13 Gy, days 2-4): reduced
protection from the gastrointestinal effects of total body irradiation ([7]; 13 Gy, days 2-4): partially protected
small intestine histology ([7]; mouse, in vivo, po, 50 mg/kg): essentially normal
percentage of bacterial invasion by Burkholderia cepacia [8]: decreases
binding of MRSA to nasal epithelial cells [9]: decreases
mean mucositis score [10]: reduced
mortality, vehicle versus PAAG ([11]; 12.5 Gy): numerically significant
mortality, vehicle versus PAAG ([11]; 13.5 Gy): not statistically different
mortality, vehicle versus PAAG ([11]; 14.0 Gy): not statistically different
mortality ([11]; after LD70 ionizing radiation): reduced
adverse effects ([11]; any dose): No adverse effects
bacteria in the MLN (CFU/g) versus vehicle control group [12]: dramatically less
LPS activated IL-8 response [13]: reduced
